In the oligonucleotide strings, read from the 5' end, every base follows the letter of its sugar. An asterisk marks phosphorothioate; unmarked linkages are phosphodiester. Other units and linkages are bracketed, terminal groups are in braces. A string of capitals states the bases alone. d = 2'-deoxy (DNA); m = 2'-O-methyl

For the data set, the target named is T1, human TLR7 (Homo sapiens, UniProt Q9NYK1).
T1 construct: HA; host or cells: 293XL-hTLR7-HA (HEK293)
T1 sequence (Q9NYK1 27-1049): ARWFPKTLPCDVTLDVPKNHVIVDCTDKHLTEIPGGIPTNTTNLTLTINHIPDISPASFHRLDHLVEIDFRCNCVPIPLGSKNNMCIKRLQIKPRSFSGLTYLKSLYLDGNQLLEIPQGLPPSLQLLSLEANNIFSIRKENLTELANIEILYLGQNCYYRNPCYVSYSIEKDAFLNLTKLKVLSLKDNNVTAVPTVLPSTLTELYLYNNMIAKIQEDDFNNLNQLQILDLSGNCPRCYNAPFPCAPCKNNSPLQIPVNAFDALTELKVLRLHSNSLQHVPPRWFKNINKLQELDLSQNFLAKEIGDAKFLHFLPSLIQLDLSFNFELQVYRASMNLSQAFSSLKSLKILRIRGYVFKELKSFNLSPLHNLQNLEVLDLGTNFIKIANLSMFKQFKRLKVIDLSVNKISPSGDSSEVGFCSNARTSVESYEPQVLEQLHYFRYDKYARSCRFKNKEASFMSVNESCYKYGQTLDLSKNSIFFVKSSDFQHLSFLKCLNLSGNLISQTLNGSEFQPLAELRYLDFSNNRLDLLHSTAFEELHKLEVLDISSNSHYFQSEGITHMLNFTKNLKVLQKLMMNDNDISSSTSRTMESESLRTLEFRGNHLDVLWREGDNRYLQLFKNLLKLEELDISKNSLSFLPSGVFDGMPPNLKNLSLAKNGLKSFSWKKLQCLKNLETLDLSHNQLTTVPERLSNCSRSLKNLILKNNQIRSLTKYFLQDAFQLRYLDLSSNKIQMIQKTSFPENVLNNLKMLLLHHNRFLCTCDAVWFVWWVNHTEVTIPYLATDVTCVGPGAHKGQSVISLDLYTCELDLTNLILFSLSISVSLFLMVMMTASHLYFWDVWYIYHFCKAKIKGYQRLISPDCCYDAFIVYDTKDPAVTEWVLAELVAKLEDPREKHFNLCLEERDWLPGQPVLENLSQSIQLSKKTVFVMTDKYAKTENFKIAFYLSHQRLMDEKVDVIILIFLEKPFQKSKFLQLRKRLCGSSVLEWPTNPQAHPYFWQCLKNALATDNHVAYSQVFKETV
Kind of data set: HEK-TLR7 NF-κB-luciferase reporter, R848 stimulation. The data set is classed as cell-based. Particulars: for TLR7 100 nM (averaged NF-κB-Luciferase level relative to R848 condition): ASO 100 nM; for TLR7 100 nM (averaged NF-κB-Luciferase level relative to R848 condition) / TLR7 500 nM (averaged NF-κB-Luciferase level relative to R848 condition): relative to R848 only, given as fraction; for TLR7 500 nM (averaged NF-κB-Luciferase level relative to R848 condition): ASO 500 nM; for IC50 / TLR7 400 nM / TLR7 2 uM / inhibition of TLR7 by 3-mer 2′OMe oligos (in words) / inhibition of R848 sensing by TLR7, short pre-treatment (in words): HEK-TLR7; for IC50: oligo ~30-50 min before 1 μg/ml R848 overnight, read-out: IC50 (R848 sensing by TLR7); for TLR7 400 nM: 3mer 2'OMe ASO at 400 nM; for TLR7 400 nM / TLR7 2 uM: value relative to Ligand only = 1.000, NT = 0.000; for TLR7 2 uM: 3mer 2'OMe ASO at 2 uM; for inhibition of TLR7 by 3-mer 2′OMe oligos (in words): 400 nM and 2 μM 3-mer, ~30 min, R848 1 μg/ml; for inhibition of R848 sensing by TLR7, short pre-treatment (in words): 100-500 nM oligo 20-50 min before R848 1 μg/ml. Background: A reporter such as luciferase makes a cellular process visible.

For “GTTCAGTCCTGTCCAT (antisense; LNA-modified, pattern not given here) [HPRT LNA-292 V1]”, the “TLR7 100 nM (averaged NF-κB-Luciferase level relative to R848 condition)” value came out at 0.456 and the “TLR7 500 nM (averaged NF-κB-Luciferase level relative to R848 condition)” value is recorded as 0.114.

Consider “T*T*A* G*G*G* T*T*A* G*G*G* T*T*A* G*G*G* T*T*A* G*G*G [A151, reference compound]”, for which the IC50 – broadly, the point on the concentration scale where inhibition reaches its midpoint – amounted to 0.132 µM.

Turning to “TCCAACACTTCGTGGG (antisense; LNA-modified, pattern not given here) [HPRT LNA-669 V1]”, the “TLR7 100 nM (averaged NF-κB-Luciferase level relative to R848 condition)” value was 0.318 and the “TLR7 500 nM (averaged NF-κB-Luciferase level relative to R848 condition)” value stood at 0.249.

Turning to “TCGTAGTTGCTTCCTA (antisense; LNA-modified, pattern not given here) [MB21D1-1181 LNA KL]”, the “TLR7 100 nM (averaged NF-κB-Luciferase level relative to R848 condition)” value is 0.380 and the “TLR7 500 nM (averaged NF-κB-Luciferase level relative to R848 condition)” value is listed as 0.198.

In the case of “TGATGGCCTCCCATCT (antisense; LNA-modified, pattern not given here) [HPRT LNA-332 V1]”, the “TLR7 100 nM (averaged NF-κB-Luciferase level relative to R848 condition)” value stood at 0.657 and the “TLR7 500 nM (averaged NF-κB-Luciferase level relative to R848 condition)” value was determined as 0.153.

Turning to “TGCACACTTCGTACCC (antisense; LNA-modified, pattern not given here) [CAMSAP1-4916 LNA V1]”, the “TLR7 100 nM (averaged NF-κB-Luciferase level relative to R848 condition)” value is on record as 0.806 and the “TLR7 500 nM (averaged NF-κB-Luciferase level relative to R848 condition)” value was determined as 0.299.

Regarding “TGGCCTCCCATCTCCT (antisense; LNA-modified, pattern not given here) [HPRT LNA-329 V1]”, the “TLR7 100 nM (averaged NF-κB-Luciferase level relative to R848 condition)” value was found to be 0.877 and the “TLR7 500 nM (averaged NF-κB-Luciferase level relative to R848 condition)” value is given as 0.217.

For “TGTGATGGCCTCCCAT (antisense; LNA-modified, pattern not given here) [HPRT LNA-334 V1]”, the “TLR7 100 nM (averaged NF-κB-Luciferase level relative to R848 condition)” value came out at 0.315 and the “TLR7 500 nM (averaged NF-κB-Luciferase level relative to R848 condition)” value was found to be 0.090.

As for “TTCGTGGGGTCCTTTT (antisense; LNA-modified, pattern not given here) [HPRT LNA-661 V1]”, the “TLR7 100 nM (averaged NF-κB-Luciferase level relative to R848 condition)” value turned out to be 0.487 and the “TLR7 500 nM (averaged NF-κB-Luciferase level relative to R848 condition)” value is listed as 0.178.

For the substance “TTTTGGCTGGGATCAA (antisense; LNA-modified, pattern not given here) [CAMSAP1-4697 LNA KL]”, the “TLR7 100 nM (averaged NF-κB-Luciferase level relative to R848 condition)” value was found to be 0.564 and the “TLR7 500 nM (averaged NF-κB-Luciferase level relative to R848 condition)” value came to 0.305.

Regarding UAA (mU*mA*mA), the “TLR7 400 nM” value turned out to be 1.126 and the “TLR7 2 uM” value came out at 1.029.

Regarding UAC (mU*mA*mC), the “TLR7 400 nM” value came out at 1.161 and the “TLR7 2 uM” value is given as 1.003.

For the substance UAG (mU*mA*mG), the “TLR7 400 nM” value came to 1.158 and the “TLR7 2 uM” value was 0.918.

On to UAU (mU*mA*mU), for which the “TLR7 400 nM” value is listed as 1.086 and the “TLR7 2 uM” value stood at 0.935.

UCC (mU*mC*mC): the “TLR7 400 nM” value worked out at 1.166 and the “TLR7 2 uM” value is 0.958.

Turning to UCU (mU*mC*mU), the “TLR7 400 nM” value was 1.196 and the “TLR7 2 uM” value worked out at 0.956.

In the case of UGC (mU*mG*mC), the “TLR7 400 nM” value was 1.057 and the “TLR7 2 uM” value is given as 0.782.

Consider UGU (mU*mG*mU), for which the “TLR7 400 nM” value is given as 1.108 and the “TLR7 2 uM” value is on record as 0.984.

As for UUA (mU*mU*mA), the “TLR7 400 nM” value came to 0.997 and the “TLR7 2 uM” value worked out at 1.042.

On to UUC (mU*mU*mC), for which the “TLR7 400 nM” value came to 0.536 and the “TLR7 2 uM” value was 0.642.

Turning to “UUG (listed as RNA, chemistry not fully specified)”, the “TLR7 400 nM” value is reported as 0.945 and the “TLR7 2 uM” value was determined as 1.074.

Regarding UUU (mU*mU*mU), the “TLR7 400 nM” value amounted to 0.861 and the “TLR7 2 uM” value was determined as 1.084.

With “dA*dA*dA (DNA AAA; listed as DNA, chemistry not fully specified)”, the “TLR7 400 nM” value is reported as 1.352 and the “TLR7 2 uM” value came to 0.867.

Consider “dA*dA*dC (DNA AAC; listed as DNA, chemistry not fully specified)”, for which the “TLR7 400 nM” value was determined as 1.019 and the “TLR7 2 uM” value was determined as 0.770.

Consider “dA*dA*dG (DNA AAG; listed as DNA, chemistry not fully specified)”, for which the “TLR7 400 nM” value was found to be 1.247 and the “TLR7 2 uM” value is 0.876.

On to “dA*dC*dA (DNA ACA; listed as RNA, chemistry not fully specified)”, for which the “TLR7 400 nM” value is given as 1.234 and the “TLR7 2 uM” value is given as 0.831.

In the case of “dA*dG*dA (DNA AGA; listed as DNA, chemistry not fully specified)”, the “TLR7 400 nM” value is 1.219 and the “TLR7 2 uM” value worked out at 0.795.

Turning to “dA*dG*dC (DNA AGC; listed as DNA, chemistry not fully specified)”, the “TLR7 400 nM” value is recorded as 1.401 and the “TLR7 2 uM” value was 0.726.

Regarding “dC*dA*dA (CAA; listed as DNA, chemistry not fully specified)”, the “TLR7 400 nM” value stood at 1.175 and the “TLR7 2 uM” value turned out to be 0.787.

As for “dC*dA*dC (CAC; listed as RNA, chemistry not fully specified)”, the “TLR7 400 nM” value amounted to 1.330 and the “TLR7 2 uM” value was found to be 0.932.

With “dC*dC*dA (CCA; listed as DNA, chemistry not fully specified)”, the “TLR7 400 nM” value is reported as 1.270 and the “TLR7 2 uM” value came out at 0.780.

For “dC*dC*dC (CCC; listed as DNA, chemistry not fully specified)”, the “TLR7 400 nM” value was determined as 1.196 and the “TLR7 2 uM” value stood at 0.993.

Regarding “dC*dC*dG (CCG; listed as DNA, chemistry not fully specified)”, the “TLR7 400 nM” value was 1.227 and the “TLR7 2 uM” value was 1.006.

Turning to “dC*dG*dA (CGA; listed as DNA, chemistry not fully specified)”, the “TLR7 400 nM” value was 1.112 and the “TLR7 2 uM” value is recorded as 0.907.

Turning to dG*dC*dC [GCC], the “TLR7 400 nM” value is recorded as 1.360 and the “TLR7 2 uM” value was 0.645.

With dG*dC*dG [GCG], the “TLR7 400 nM” value stood at 1.185 and the “TLR7 2 uM” value was determined as 0.627.

In the case of “mAmUmC (mA*mU*mC) [AUC, 3-mer 2′OMe PS oligo]”, the “TLR7 400 nM” value is 0.950, the “TLR7 2 uM” value is listed as 0.430 and the “inhibition of TLR7 by 3-mer 2′OMe oligos (in words)” value is on record as “inhibiting TLR7”.

In the case of “mC*mG*mU*T*T*C*C*C*C*C*C*C*C*C*C*C*C*C*C*C (CGUTTCCCCCCCCCCCCCCC; antisense; sugars from the 5' end m3 d17, all phosphorothioate, methylation of C not given here) [[C2]Mut1-v3-dC]”, the “inhibition of R848 sensing by TLR7, short pre-treatment (in words)” value was “significantly altered TLR7 inhibition”.

In the case of mCmUmU (antisense mC*mU*mU) [660-3], the “TLR7 400 nM” value worked out at 1.277 and the “TLR7 2 uM” value is listed as 0.913.

On to “mG*mC*mG*mG*mU*A*T*C*C*A*T*G*T*C*C*mC*mA*mG*mG*mC (mG*mC*mG*mG*mU*dA*dT*dC*dC*dA*dT*dG*dT*dC*dC*mC*mA*mG*mG*mC; antisense) [C2-Mut1]”, for which the IC50 is 0.044 µM.

On to “mG*mG*mU*A*T*C*C*C*C*C*C*C*C*C*C*C*C*C*C*C (GGUATCCCCCCCCCCCCCCC; antisense; sugars from the 5' end m3 d17, all phosphorothioate, methylation of C not given here) [[C2]Mut1-dC]”, for which the “inhibition of R848 sensing by TLR7, short pre-treatment (in words)” value is “significantly higher TLR7 inhibition than dC20”.

In the case of “mGmAmU (mG*mA*mU) [GAU, 3-mer 2′OMe PS oligo]”, the “TLR7 400 nM” value amounted to 1.406, the “TLR7 2 uM” value turned out to be 0.580, the “inhibition of TLR7 by 3-mer 2′OMe oligos (in words)” value was “selectively inhibited TLR7 sensing” and the IC50 came out at 0.3 µM.

For the origin of these results see patent publication US20240384268A1, “Oligonucleotides” (Hudson Institute of Medical Research, priority 2021, published 2024).
